Series [1] has as its target T1, Solute carrier organic anion transporter family member 1A2 (Homo sapiens, UniProt P46721).
T1 sequence (P46721 whole entry): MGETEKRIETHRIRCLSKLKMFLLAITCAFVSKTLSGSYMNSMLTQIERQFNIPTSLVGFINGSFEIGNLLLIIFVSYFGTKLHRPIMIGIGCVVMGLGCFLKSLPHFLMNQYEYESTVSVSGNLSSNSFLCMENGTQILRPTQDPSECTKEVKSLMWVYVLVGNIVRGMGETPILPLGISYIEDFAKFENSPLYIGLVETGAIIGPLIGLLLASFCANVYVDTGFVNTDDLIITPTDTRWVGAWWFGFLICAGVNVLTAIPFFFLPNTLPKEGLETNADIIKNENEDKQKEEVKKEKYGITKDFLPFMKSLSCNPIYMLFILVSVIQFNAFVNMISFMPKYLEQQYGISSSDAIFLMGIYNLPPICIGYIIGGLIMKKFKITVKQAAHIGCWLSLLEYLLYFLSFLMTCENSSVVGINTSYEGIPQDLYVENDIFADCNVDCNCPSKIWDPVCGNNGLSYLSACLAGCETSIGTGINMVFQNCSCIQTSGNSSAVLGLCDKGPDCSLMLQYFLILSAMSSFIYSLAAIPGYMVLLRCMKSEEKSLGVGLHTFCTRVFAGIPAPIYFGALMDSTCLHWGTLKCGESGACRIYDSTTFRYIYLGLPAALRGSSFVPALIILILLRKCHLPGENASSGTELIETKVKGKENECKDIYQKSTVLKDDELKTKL
The series is described as follows: TP_TRANSPORTER: inhibition of BSP uptake (BSP: 10 uM, CDCA: 200 uM) in Xenopus laevis oocytes. Type of series: functional, cell-based. More on the design: scale not given: the % may be the effect or the level left. The note with it: oocyte.

For series [2], the target named is T1, Solute carrier organic anion transporter family member 1A2. The series is described as follows: TP_TRANSPORTER: inhibition of Taurocholate uptake (Taurochorate: 10 uM, CDCA: 200 uM) in Xenopus laevis oocytes. Type of series: functional, cell-based. More on the design: scale not given: the % may be the effect or the level left. The note with it: oocyte.
Series [3] deals with T2, Solute carrier organic anion transporter family member 1A2 (OATP1A2) (Homo sapiens, UniProt P46721).
T2 sequence (P46721 whole entry): T1 sequence (P46721 whole entry)
The series is described as follows: TP_TRANSPORTER: inhibition of Taurocholate uptake (Taurochorate: 10 uM, GC: 200 uM) in Xenopus laevis oocytes. Type of series: functional, cell-based, Oocyte. More on the design: scale not given: the % may be the effect or the level left. The note with it: Xenopus laevis oocytes expressing OATP1A2 (SLCO1A2), probe taurocholate, read-out: Activity.

Series [4] has as its target T1, Solute carrier organic anion transporter family member 1A2. The series is described as follows: TP_TRANSPORTER: inhibition of BSP uptake (BSP: 10 uM, GC: 100 uM) in Xenopus laevis oocytes. The format is functional, cell-based. More on the design: scale not given: the % may be the effect or the level left. Particulars: oocyte.
In series [5] the target is T2, Solute carrier organic anion transporter family member 1A2 (OATP1A2). The series is described as follows: TP_TRANSPORTER: inhibition of BSP uptake (BSP: 10 uM, ICG: 100 uM) in Xenopus laevis oocytes. More on the design: scale not given: the % may be the effect or the level left. Particulars: Xenopus laevis oocytes expressing OATP1A2 (SLCO1A2), probe BSP (sulfobromophthalein), read-out: Activity. Type of series: functional, cell-based, Oocyte.

Series [6] has the same target. The series is described as follows: TP_TRANSPORTER: inhibition of Taurocholate uptake (Taurochorate: 10 uM, ICG: 100 uM) in Xenopus laevis oocytes. The note with it: Xenopus laevis oocytes expressing OATP1A2 (SLCO1A2), probe taurocholate, read-out: Activity. Type of series: functional, cell-based, Oocyte. More on the design: scale not given: the % may be the effect or the level left.

Series [7] shares this target. The series is described as follows: TP_TRANSPORTER: uptake in Xenopus laevis oocytes. Type of series: functional, cell-based, Oocyte. Particulars: Xenopus laevis oocytes expressing OATP1A2 (SLCO1A2).
Series [8] has the same target. The series is described as follows: TP_TRANSPORTER: inhibition of Taurocholate uptake (Taurochorate: 10 uM, TCDC: 100 uM) in Xenopus laevis oocytes. The format is functional, cell-based, Oocyte. The note with it: Xenopus laevis oocytes expressing OATP1A2 (SLCO1A2), probe taurocholate, read-out: Activity. More on the design: scale not given: the % may be the effect or the level left.

Series [9] shares this target. The series is described as follows: TP_TRANSPORTER: inhibition of BSP uptake (BSP: 10 uM, TCDC: 100 uM) in Xenopus laevis oocytes. The note with it: Xenopus laevis oocytes expressing OATP1A2 (SLCO1A2), probe BSP (sulfobromophthalein), read-out: Activity. Type of series: functional, cell-based, Oocyte. More on the design: scale not given: the % may be the effect or the level left.

For series [10] the target is unchanged. The series is described as follows: TP_TRANSPORTER: inhibition of Taurocholate uptake (Taurochorate: 10 uM, TUDC: 100 uM) in Xenopus laevis oocytes. Particulars: Xenopus laevis oocytes expressing OATP1A2 (SLCO1A2), probe taurocholate, read-out: Activity. Type of series: functional, cell-based, Oocyte. More on the design: scale not given: the % may be the effect or the level left.

For series [11] the target is unchanged. The series is described as follows: TP_TRANSPORTER: inhibition of BSP uptake (BSP: 10 uM, TUDC: 100 uM) in Xenopus laevis oocytes. Particulars: Xenopus laevis oocytes expressing OATP1A2 (SLCO1A2), probe BSP (sulfobromophthalein), read-out: Activity. The format is functional, cell-based, Oocyte. More on the design: scale not given: the % may be the effect or the level left.

In series [12] the target is T1, Solute carrier organic anion transporter family member 1A2. The series is described as follows: TP_TRANSPORTER: inhibition of Taurocholate uptake (Taurochorate: 10 uM, UDCA: 200 uM) in Xenopus laevis oocytes. More on the design: scale not given: the % may be the effect or the level left. Type of series: functional, cell-based. Particulars: oocyte.
The target of series [13] is T2, Solute carrier organic anion transporter family member 1A2 (OATP1A2). The series is described as follows: TP_TRANSPORTER: inhibition of BSP uptake (BSP: 10 uM, UDCA: 100 uM) in Xenopus laevis oocytes. More on the design: scale not given: the % may be the effect or the level left. Type of series: functional, cell-based, Oocyte. Particulars: Xenopus laevis oocytes expressing OATP1A2 (SLCO1A2), probe BSP (sulfobromophthalein), read-out: Activity.

On to `C[C@H](CCC(=O)O)[C@H]1CC[C@H]2[C@@H]3[C@H](O)C[C@@H]4C[C@H](O)CC[C@]4(C)[C@H]3CC[C@]12C` [CHENODIOL], for which the Activity in series [1] amounted to 34%; in [2] it was 15%.
For `C[C@H](CCC(=O)NCC(=O)O)[C@H]1CC[C@H]2[C@@H]3[C@H](O)C[C@@H]4C[C@H](O)CC[C@]4(C)[C@H]3C[C@H](O)[C@]12C` [GLYCOCHOLIC ACID], in series [3], the activity at 200 µM amounted to 24%. For the same compound, the Activity in series [4] is reported as 81%.
Turning to `CC1(C)C(/C=C/C=C/C=C/C=C2\N(CCCCS(=O)(=O)O)c3ccc4ccccc4c3C2(C)C)=[N+](CCCCS(=O)(=O)[O-])c2ccc3ccccc3c21` [INDOCYANINE GREEN], the activity at 100 µM in series [5] turned out to be 60%; in [6] it was 28%.
The term Km denotes the substrate concentration at which the rate is half of its maximum. With `O=C1OC(c2ccc(O)c(S(=O)(=O)O)c2)(c2ccc(O)c(S(=O)(=O)O)c2)c2c(Br)c(Br)c(Br)c(Br)c21` [SULFOBROMOPHTHALEIN SODIUM], the Michaelis constant (Km) in series [7] stood at 20 µM.
Turning to `C[C@H](CCC(=O)NCCS(=O)(=O)O)[C@H]1CC[C@H]2[C@@H]3[C@H](O)C[C@@H]4C[C@H](O)CC[C@]4(C)[C@H]3CC[C@]12C` [TAUROCHENODEOXYCHOLATE], the figures for the activity at 100 µM in [8] and in series [9] were 28% and 17%, respectively.
In the case of `C[C@H](CCC(=O)NCCS(=O)(=O)O)[C@H]1CC[C@H]2[C@@H]3[C@@H](O)C[C@@H]4C[C@H](O)CC[C@]4(C)[C@H]3CC[C@]12C` [TAURURSODIOL], the activity at 100 µM in series [10] and in series [11] was 9% throughout. Also, the Km in series [7] was 19 µM.
The compound `C[C@H](CCC(=O)O)[C@H]1CC[C@H]2[C@@H]3[C@@H](O)C[C@@H]4C[C@H](O)CC[C@]4(C)[C@H]3CC[C@]12C` [URSODIOL] returned an Activity in series [12] of 14%. The activity at 100 µM in series [13] came to 57%.
